Source: ChEMBL document CHEMBL3751801, “Synthesis of novel polybrominated benzimidazole derivatives-potential CK2 inhibitors with anticancer and proapoptotic activity” (Bioorg Med Chem, 2016)

Tests used:
CCRF-CEM [1] = assay: Induction of apoptosis in human CCRF-CEM cells assessed as necrotic cells at 50 uM after 24 hrs by annexinV and propidium iodide staining based FACS analysis (reference value: 0.1 +/- 0.1%); format: functional
CCRF-CEM [2] = assay: Cytotoxicity against human CCRF-CEM cells assessed as cell viability at 20 uM after 24 hrs by MTT assay; format: functional; conditions: read-out: Activity
MCF7 [3] = assay: Cytotoxicity against human MCF7 cells assessed as cell viability at 50 uM after 24 hrs by MTT assay; format: functional; conditions: MCF7, 24 h, read-out: Activity
CCRF-CEM [4] = assay: Induction of apoptosis in human CCRF-CEM cells assessed as viable cells at 10 uM after 24 hrs by annexinV and propidium iodide staining based FACS analysis (reference value: 96.4 +/- 1.2%); format: functional; conditions: read-out: Activity
MCF7 [5] = assay: Cytotoxicity against human MCF7 cells assessed as cell viability at 20 uM after 24 hrs by MTT assay; format: functional; conditions: MCF7, 24 h, read-out: Activity
CCRF-CEM [6] = assay: Induction of apoptosis in human CCRF-CEM cells assessed as late apoptotic cells at 10 uM after 24 hrs by annexinV and propidium iodide staining based FACS analysis (reference value: 1.9 +/- 0.5%); format: functional
MCF7 [7] = assay: Cytotoxicity against human MCF7 cells assessed as cell viability at 10 uM after 24 hrs by MTT assay; format: functional; conditions: MCF7, 24 h, read-out: Activity
CCRF-CEM [8] = assay: Induction of apoptosis in human CCRF-CEM cells assessed as necrotic cells at 10 uM after 24 hrs by annexinV and propidium iodide staining based FACS analysis (reference value: 0.1 +/- 0.1%); format: functional
CCRF-CEM [9] = assay: Induction of apoptosis in human CCRF-CEM cells assessed as early apoptotic cells at 50 uM after 24 hrs by annexinV and propidium iodide staining based FACS analysis (reference value: 1.5 +/- 0.8%); format: functional
CCRF-CEM [10] = assay: Induction of apoptosis in human CCRF-CEM cells assessed as viable cells at 50 uM after 24 hrs by annexinV and propidium iodide staining based FACS analysis (reference value: 96.4 +/- 1.2%); format: functional; conditions: read-out: Activity
CCRF-CEM [11] = assay: Induction of apoptosis in human CCRF-CEM cells assessed as late apoptotic cells at 50 uM after 24 hrs by annexinV and propidium iodide staining based FACS analysis (reference value: 1.9 +/- 0.5%); format: functional
CCRF-CEM [12] = assay: Induction of apoptosis in human CCRF-CEM cells assessed as early apoptotic cells at 10 uM after 24 hrs by annexinV and propidium iodide staining based FACS analysis (reference value: 1.5 +/- 0.8%); format: functional
CCRF-CEM [13] = assay: Cytotoxicity against human CCRF-CEM cells assessed as cell viability at 10 uM after 24 hrs by MTT assay; format: functional; conditions: read-out: Activity
CCRF-CEM [14] = assay: Cytotoxicity against human CCRF-CEM cells assessed as cell viability at 50 uM after 24 hrs by MTT assay; format: functional; conditions: read-out: Activity
Homo sapiens [15] = species: Homo sapiens; assay: Inhibition of PKA (unknown origin) assessed as enzyme activity at 5 uM; design: scale not given: the % may be the effect or the level left
[16] = biological target: Dual specificity tyrosine-phosphorylation-regulated kinase 1A (Homo sapiens) (UniProt Q13627); assay: Inhibition of DYRK1A (unknown origin) assessed as enzyme activity at 5 uM; design: scale not given: the % may be the effect or the level left
[17] = biological target: Homeodomain-interacting protein kinase 1 (Homo sapiens) (UniProt Q86Z02); assay: Inhibition of HIPK1 (unknown origin) assessed as enzyme activity at 5 uM; design: scale not given: the % may be the effect or the level left
[18] = biological target: Serine/threonine-protein kinase pim-1 (Homo sapiens) (UniProt P11309); assay: Inhibition of PIM1 (unknown origin) assessed as enzyme activity at 5 uM; design: scale not given: the % may be the effect or the level left
[19] = biological target: T1, Serine/threonine-protein kinase D2 (Homo sapiens) (UniProt Q9BZL6); assay: Inhibition of PRKD2 (unknown origin) assessed as enzyme activity at 5 uM; design: scale not given: the % may be the effect or the level left
T1 sequence (whole entry): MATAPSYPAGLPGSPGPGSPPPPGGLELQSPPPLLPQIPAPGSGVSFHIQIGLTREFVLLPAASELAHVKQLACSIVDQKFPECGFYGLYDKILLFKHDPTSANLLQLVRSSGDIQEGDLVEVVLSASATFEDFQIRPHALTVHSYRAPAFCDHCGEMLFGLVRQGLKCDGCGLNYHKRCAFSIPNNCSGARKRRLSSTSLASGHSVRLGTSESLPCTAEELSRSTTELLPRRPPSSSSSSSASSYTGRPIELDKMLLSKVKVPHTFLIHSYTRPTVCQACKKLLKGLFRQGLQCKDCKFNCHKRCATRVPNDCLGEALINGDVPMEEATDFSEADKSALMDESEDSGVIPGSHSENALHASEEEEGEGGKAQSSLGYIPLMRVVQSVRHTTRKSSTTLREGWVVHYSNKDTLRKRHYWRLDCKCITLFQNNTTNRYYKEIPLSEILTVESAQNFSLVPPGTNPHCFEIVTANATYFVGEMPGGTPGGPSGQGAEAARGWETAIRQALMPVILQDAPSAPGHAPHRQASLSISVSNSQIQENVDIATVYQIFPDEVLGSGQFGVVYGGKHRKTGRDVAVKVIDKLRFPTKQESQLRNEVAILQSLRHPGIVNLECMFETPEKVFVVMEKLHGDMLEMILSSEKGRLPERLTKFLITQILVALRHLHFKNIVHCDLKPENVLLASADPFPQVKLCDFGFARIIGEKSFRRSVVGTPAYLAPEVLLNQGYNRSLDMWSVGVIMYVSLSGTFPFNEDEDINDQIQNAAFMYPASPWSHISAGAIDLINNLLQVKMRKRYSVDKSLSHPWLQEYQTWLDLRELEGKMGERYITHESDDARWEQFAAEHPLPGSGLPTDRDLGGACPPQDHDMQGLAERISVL

[20] = biological target: Casein kinase I isoform alpha (Homo sapiens) (UniProt P48729); assay: Inhibition of CK1-alpha1 (unknown origin) assessed as enzyme activity at 5 uM; design: scale not given: the % may be the effect or the level left
[21] = biological target: Casein kinase II subunit alpha (Homo sapiens, UniProt P68400); assay: Inhibition of recombinant human CK2alpha using RRRDDDSDDD substrate peptide by scintillation counter in presence of [32P]ATP
[22] = biological target: Casein kinase II (Homo sapiens) (UniProt P67870+P68400+P19784); conditions: CCRF-CEM, 5 uM
[23] = biological target: Mitogen-activated protein kinase 3 (Homo sapiens) (UniProt P27361); assay: Inhibition of Erk1 (unknown origin) assessed as enzyme activity at 5 uM; design: scale not given: the % may be the effect or the level left
[24] = biological target: T2, CDK2/Cyclin A2 (Homo sapiens) (UniProt P24941+P20248); assay: Inhibition of CDK2/CycA2 (unknown origin) assessed as enzyme activity at 5 microM; format: protein-complex assay; design: scale not given: the % may be the effect or the level left
[25] = biological target: T1, Serine/threonine-protein kinase D2 (Homo sapiens); assay: Inhibition of PRKD2 (unknown origin) assessed as enzyme activity at 10 uM; design: scale not given: the % may be the effect or the level left
[26] = biological target: Serine/threonine-protein kinase pim-1 (Homo sapiens) (UniProt P11309); assay: Inhibition of PIM1 (unknown origin) assessed as enzyme activity at 10 uM; design: scale not given: the % may be the effect or the level left
Homo sapiens [27] = species: Homo sapiens; assay: Inhibition of PKA (unknown origin) assessed as enzyme activity at 10 uM; design: scale not given: the % may be the effect or the level left
[28] = biological target: T2, CDK2/Cyclin A2 (Homo sapiens); assay: Inhibition of CDK2/CycA2 (unknown origin) assessed as enzyme activity at 10 uM; format: protein-complex assay; design: scale not given: the % may be the effect or the level left
[29] = biological target: Casein kinase I isoform alpha (Homo sapiens) (UniProt P48729); assay: Inhibition of CK1-alpha1 (unknown origin) assessed as enzyme activity at 10 uM; design: scale not given: the % may be the effect or the level left
[30] = biological target: Mitogen-activated protein kinase 3 (Homo sapiens) (UniProt P27361); assay: Inhibition of Erk1 (unknown origin) assessed as enzyme activity at 10 uM; design: scale not given: the % may be the effect or the level left
[31] = biological target: Homeodomain-interacting protein kinase 1 (Homo sapiens) (UniProt Q86Z02); assay: Inhibition of HIPK1 (unknown origin) assessed as enzyme activity at 10 uM; design: scale not given: the % may be the effect or the level left
[32] = biological target: Dual specificity tyrosine-phosphorylation-regulated kinase 1A (Homo sapiens) (UniProt Q13627); assay: Inhibition of DYRK1A (unknown origin) assessed as enzyme activity at 10 uM; design: scale not given: the % may be the effect or the level left

SMILES | Activity (CCRF-CEM [1]) | viability at 20 µM (CCRF-CEM [2]) | viability at 50 µM (MCF7 [3]) | viability at 10 µM (CCRF-CEM [4]) | viability at 20 µM (MCF7 [5]) | Activity (CCRF-CEM [6]) | viability at 10 µM (MCF7 [7]) | Activity (CCRF-CEM [8]) | Activity (CCRF-CEM [9]) | viability at 50 µM (CCRF-CEM [10]) | Activity (CCRF-CEM [11]) | Activity (CCRF-CEM [12]) | viability at 10 µM (CCRF-CEM [13]) | viability at 50 µM (CCRF-CEM [14]) | also measured
Cc1nc2c(Br)c(Br)c(Br)c(Br)c2n1CCCCC#N | 0.6% | 61% | 42% | 93.5% | 110% | 2.9% | 109% | 0.1% | 39.9% | 30.2% | 29.3% | 3.6% | 92% | 55% | 
N#CCCn1cnc2c(Br)c(Br)c(Br)c(Br)c21 | 0.4% | 44% | 23% | 90.6% | 72% | 3.9% | 81% | 0.1% | 77.2% | 5.4% | 17% | 5.4% | 80% | 2% | 
Cc1nc2c(Br)c(Br)c(Br)c(Br)c2[nH]1 | 0.4% | 15% | 33% | 36.7% | 66% | 15.3% | 76% | 0.5% | 59.8% | 14.2% | 27.3% | 47.3% | 29% | 6% | Activity (Homo sapiens [15]): 113%; Activity [16]: 17%; Activity [17]: 43%; Activity [18]: 6%; Activity [19]: 14%; Activity [20]: 84%; Ki [21]: 1.11 µM; inhibition [22]: 20%; Activity [23]: 92%; Activity [24]: 20%
Cc1nc2c(Br)c(Br)c(Br)c(Br)c2n1CCC#N | 0.9% | 51% | 15% | 82% | 74% | 7.1% | 85% | 0.2% | 69.6% | 6.2% | 20.1% | 10.6% | 84% | 2% | 
N#CCn1cnc2c(Br)c(Br)c(Br)c(Br)c21 | 0.8% | 28% | 43% | 76.2% | 65% | 8.8% | 87% | 0.5% | 62.7% | 14.8% | 20.4% | 12.3% | 63% | 2% | 
Cc1nc2c(Br)c(Br)c(Br)c(Br)c2n1CC#N | 0.6% | 14% | 11% | 52% | 36% | 17.8% | 52% | 0.8% | 59.7% | 2.4% | 33.9% | 28.9% | 45% | 2% | 
Cc1nc2c(Br)c(Br)c(Br)c(Br)c2n1CCCC#N | 5.7% | 44% | 5% | 82.4% | 56% | 6.3% | 65% | 0.5% | 14.7% | 3.3% | 76.3% | 10.8% | 68% | 1% | 
N#CCCCn1cnc2c(Br)c(Br)c(Br)c(Br)c21 | 2.3% | 70% | 16% | 92.8% | 70% | 3.8% | 89% | 0.1% | 41.1% | 21.5% | 33.3% | 3.3% | 85% | 2% | 
N#CCCCCn1cnc2c(Br)c(Br)c(Br)c(Br)c21 | 0.9% | 70% | 18% | 93.6% | 99% | 3.1% | 102% | 0.1% | 39.9% | 14.3% | 44.9% | 3.2% | 98% | 1% | 
Brc1c(Br)c(Br)c2[nH]cnc2c1Br | 1% | 67% | 40% | 94.8% | 77% | 2.7% | 94% | 0.1% | 59.2% | 18.8% | 26% | 2.4% | 92% | 7% | Activity [25]: 5%; Activity [26]: 2%; Activity (Homo sapiens [27]): 75%; Activity [28]: 23%; Activity [29]: 48%; Activity [30]: 78%; Activity [31]: 9%; Activity [32]: 3%
